The source made the active and inactive calls. The calls are words filed in the database; no cut-off is given here.
Test system: Mus musculus
Assay: Toxicity in BKS db/db mouse assessed as effect on body weight at 100 mg/kg/day up to 4 weeks
Type: organism-based
Conditions: in vivo, 672 h

Which Activity does the source give for CN(C)C(=N)N=C(N)N [METFORMIN] here?
The Activity was “Non-Toxic”.

Which Activity does the source give for COc1ccc(Cn2c(=O)cc(N3CCC[C@@H](N)C3)n(Cc3cc(F)ccc3C#N)c2=O)cc1OC.O=C(O)CCC(=O)O here?
Its Activity is “Non-Toxic”.

Test system: not listed separately
Assay: Lipophilicity, log P of the compound
Type: physicochemical
Conditions: octanol/water

For CC#CCn1c(N2CCC[C@@H](N)C2)cc(=O)n(Cc2ccc(OC)c(OC)c2)c1=O, which logP is on record?
Its logP is 1.55.

For COc1ccc(Cn2c(=O)cc(N3CCC[C@@H](N)C3)n(Cc3cc(F)ccc3C#N)c2=O)cc1OC [listing 1 of 2 here], which logP is on record?
Its logP is 2.66.

For CC#CCn1c(N2CCC[C@@H](N)C2)cc(=O)n(Cc2cc(C)cc(C)c2)c1=O, which logP is on record?
The logP was 2.78.

Which logP does the source give for COc1cc(Cn2c(=O)cc(N3CCC[C@@H](N)C3)n(Cc3cc(F)ccc3C#N)c2=O)cc(Br)c1OC here?
The logP was 3.49.

Which logP does the source give for CC#CCn1c(N2CCC[C@@H](N)C2)cc(=O)n(Cc2cc(OC)c(OC)c(Br)c2Br)c1=O here?
The logP was 3.21.

For CC#CCn1c(N2CCC[C@@H](N)C2)cc(=O)n(CC)c1=O, which logP is on record?
Its logP is 0.41.

With CC#CCn1c(N2CCC[C@@H](N)C2)cc(=O)n(CCCCCCCCCC)c1=O as the compound, how does the logP read?
Its logP is 3.82.

With CC#CCn1c(N2CCC[C@@H](N)C2)cc(=O)n(CCC)c1=O as the compound, how does the logP read?
The logP was 0.9.

Which logP does the source give for CC#CCn1c(N2CCC[C@@H](N)C2)cc(=O)n(Cc2cc(F)cc(F)c2)c1=O here?
Its logP is 2.12.

Which logP does the source give for CCCCCCn1c(=O)cc(N2CCC[C@@H](N)C2)n(Cc2cc(F)ccc2C#N)c1=O here?
Its logP is 3.26.

Which logP does the source give for CCCCCCCCCCn1c(=O)cc(N2CCC[C@@H](N)C2)n(Cc2cc(F)ccc2C#N)c1=O here?
The logP was 4.93.

For CC#CCn1c(N2CCC[C@@H](N)C2)cc(=O)n(Cc2c(Br)c(Br)c(OC)c(OC)c2Br)c1=O, which logP is on record?
Its logP is 4.04.

With CC#CCn1c(N2CCC[C@@H](N)C2)cc(=O)n(CCCCCC)c1=O as the compound, how does the logP read?
The logP was 2.15.

Which logP does the source give for COc1c(Br)c(Br)c(Cn2c(=O)cc(N3CCC[C@@H](N)C3)n(Cc3cc(F)ccc3C#N)c2=O)c(Br)c1OC here?
Its logP is 5.15.

With CC#CCn1c(N2CCC[C@@H](N)C2)cc(=O)n(Cc2cc(Br)c(OC)c(OC)c2)c1=O as the compound, how does the logP read?
The logP was 2.38.

For Cc1cc(C)cc(Cn2c(=O)cc(N3CCC[C@@H](N)C3)n(Cc3cc(F)ccc3C#N)c2=O)c1, which logP is on record?
Its logP is 3.89.

For N#Cc1ccc(F)cc1Cn1c(N2CCC[C@@H](N)C2)cc(=O)n(Cc2cc(F)cc(F)c2)c1=O, which logP is on record?
The logP was 3.23.

Which logP does the source give for COc1cc(Cn2c(=O)cc(N3CCC[C@@H](N)C3)n(Cc3cc(F)ccc3C#N)c2=O)c(Br)c(Br)c1OC here?
The logP was 4.32.

Test system: Mus musculus
Assay: Toxicity in BKS db/db mouse assessed as effect on water intake at 100 mg/kg/day up to 4 weeks
Type: organism-based
Conditions: in vivo, 672 h

With CN(C)C(=N)N=C(N)N [METFORMIN] as the compound, how does the Activity read?
The Activity was “Toxic”.

For COc1ccc(Cn2c(=O)cc(N3CCC[C@@H](N)C3)n(Cc3cc(F)ccc3C#N)c2=O)cc1OC.O=C(O)CCC(=O)O, which Activity is on record?
The Activity was “Toxic”.

Test system: Mus musculus
Assay: Antihyperglycemic activity in BKS db/db mouse assessed as reduction in blood glucose level at 100 mg/kg/day for 4 weeks by glucometric analysis
Type: functional, organism-based
Conditions: not given

With COc1ccc(Cn2c(=O)cc(N3CCC[C@@H](N)C3)n(Cc3cc(F)ccc3C#N)c2=O)cc1OC [listing 2 of 2 here] as the compound, how does the Activity read?
The Activity was “Active”.

With CN(C)C(=N)NC(=N)N as the compound, how does the Activity read?
The Activity was “Active”.

Test system: Mus musculus
Assay: Effect on abdominal fat content in BKS db/db mouse assessed as reduction in abdominal fat ratio at 100 mg/kg/day for 4 weeks
Type: functional, organism-based
Conditions: not given

Which Activity does the source give for COc1ccc(Cn2c(=O)cc(N3CCC[C@@H](N)C3)n(Cc3cc(F)ccc3C#N)c2=O)cc1OC [listing 2 of 2 here] here?
Its Activity is “inactive”.

With CN(C)C(=N)NC(=N)N as the compound, how does the Activity read?
The Activity was “inactive”.
